Results from patent US20100222332A1, “PYRAZOLO-PYRAZINES DERIVATIVES USED AS G PROTEIN INHIBITORS” (Ipsen Pharma S.A.S., priority 2007, published 2010).
Structures can show the parent of a compound that is named as a salt.

SMILES | melting point
N[C@@H](CSSC[C@H](N)C(=O)N1CCn2nc(-c3cccs3)cc2C1CCc1ccccc1)C(=O)N1CCn2nc(-c3cccs3)cc2C1CCc1ccccc1 (mixture of isomers) (as salt: hydrochloride) [Example 18, (2R)-3-({(2R)-2-amino-3-oxo-3-[(4RS)-4-(2-phenylethyl)-2-(2-thienyl)-6,7-dihydropyrazolo[1,5-a]pyrazin-5(4H)-yl]propyl}dithio)-1-oxo-1-[(4RS)-4-(2-phenylethyl)-2-(2-thienyl)-6,7-dihydropyrazolo[1,5-a]pyrazin-5(4H)-yl]propan-2-amine hydrochloride] | 218 °C (dec.)
N[C@@H](CSSC[C@H](N)C(=O)N1CCn2nc(-c3ccccc3)cc2C1CCc1ccccc1)C(=O)N1CCn2nc(-c3ccccc3)cc2C1CCc1ccccc1 (mixture of isomers) (as salt: hydrochloride) [Example 13, (2R)-3-({(2R)-2-amino-3-oxo-3-[(4RS)-2-phenyl-4-(2-phenylethyl)-6,7-dihydropyrazolo[1,5-a]pyrazin-5(4H)-yl]propyl}dithio)-1-oxo-1-[(4RS)-2-phenyl-4-(2-phenylethyl)-6,7-dihydropyrazolo[1,5-a]pyrazin-5(4H)-yl]propan-2-amine hydrochloride] | 208 °C (dec.)
N[C@@H](CSSC[C@H](N)C(=O)N1CCn2nc(-c3ccccc3)cc2[C@H]1CC1CCCCC1)C(=O)N1CCn2nc(-c3ccccc3)cc2[C@H]1CC1CCCCC1 (as salt: hydrochloride) [Example 26, (1R)-3-({(2R)-2-amino-3-[(4R)-4-(cyclohexylmethyl)-2-phenyl-6,7-dihydropyrazolo[1,5-a]pyrazin-5(4H)-yl]-3-oxopropyl}dithio)-1-[(4R)-4-(cyclohexylmethyl)-2-phenyl-6,7-dihydropyrazolo[1,5-a]pyrazin-5(4H)-yl]-1-oxopropan-2-amine hydrochloride] | 212 to 217 °C
CCCCCC1c2cc(-c3ccccc3)nn2CCN1C(=O)[C@@H](N)CSSC[C@H](N)C(=O)N1CCn2nc(-c3ccccc3)cc2C1CCCCC (mixture of isomers) (as salt: hydrochloride) [Example 20, (2R)-3-({(2R)-2-amino-3-oxo-3-[(4RS)-4-pentyl-2-phenyl-6,7-dihydropyrazolo[1,5-a]pyrazin-5(4H)-yl]propyl}dithio)-1-oxo-1-[(4RS)-4-pentyl-2-phenyl-6,7-dihydropyrazolo[1,5-a]pyrazin-5(4H)-yl]propan-2-amine hydrochloride] | 199 to 204 °C (dec.)
CC(C)(C)OC(=O)N[C@@H](CSSC[C@H](NC(=O)OC(C)(C)C)C(=O)N1CCn2nc(-c3ccncc3)cc2C1CCc1ccccc1)C(=O)N1CCn2nc(-c3ccncc3)cc2C1CCc1ccccc1 (mixture of isomers) [Example 3, tert-butyl {(1R)-1-[({(2R)-2-[(tert-butoxycarbonyl)amino]-3-oxo-3-[(4RS)-4-(2-phenylethyl)-2-pyridin-4-yl-6,7-dihydropyrazolo[1,5-a]pyrazin-5(4H)-yl]propyl}dithio)methyl]-2-oxo-2-[(4RS)-4-(2-phenylethyl)-2-pyridin-4-yl-6,7-dihydropyrazolo[1,5-a]pyrazin-5(4H)-yl]ethyl}carbamate] | 149 to 152 °C
CC(C)(C)OC(=O)N[C@@H](CSSC[C@H](NC(=O)OC(C)(C)C)C(=O)N1CCn2nc(-c3ccccc3)cc2C1CCc1ccccc1)C(=O)N1CCn2nc(-c3ccccc3)cc2C1CCc1ccccc1 (mixture of isomers) [Example 2, tert-butyl {(1R)-1-[({(2R)-2-[(tert-butoxycarbonyl)amino]-3-oxo-3-[(4RS)-2-phenyl-4-(2-phenylethyl)-6,7-dihydropyrazolo[1,5-a]pyrazin-5(4H)-yl]propyl}dithio)methyl]-2-oxo-2-[(4RS)-2-phenyl-4-(2-phenylethyl)-6,7-dihydropyrazolo[1,5-a]pyrazin-5(4H)-yl]ethyl}carbamate] | 123 to 127 °C
N[C@@H](CSSC[C@H](N)C(=O)N1CCn2nc(-c3cccnc3)cc2C1CCc1ccccc1)C(=O)N1CCn2nc(-c3cccnc3)cc2C1CCc1ccccc1 (mixture of isomers) (as salt: hydrochloride) [Example 15, (2R)-3-({(2R)-2-amino-3-oxo-3-[(4RS)-4-(2-phenylethyl)-2-pyridin-3-yl-6,7-dihydropyrazolo[1,5-a]pyrazin-5(4H)-yl]propyl}dithio)-1-oxo-1-[(4RS)-4-(2-phenylethyl)-2-pyridin-3-yl-6,7-dihydropyrazolo[1,5-a]pyrazin-5(4H)-yl]propan-2-amine hydrochloride] | 223 °C (dec.)
N[C@@H](CSSC[C@H](N)C(=O)N1CCCn2nc(-c3ccccc3)cc2C1CC1CCCCC1)C(=O)N1CCCn2nc(-c3ccccc3)cc2C1CC1CCCCC1 (mixture of isomers) (as salt: hydrochloride) [Example 28, {(1R)-1-[({(2R)-2-amino-3-[(4RS)-4-(cyclohexylmethyl)-2-phenyl-7,8-dihydro-4H-pyrazolo[1,5-a][1,4]diazepin-5(6H)-yl]-3-oxopropyl}dithio)methyl]-2-[(4RS)-4-(cyclohexylmethyl)-2-phenyl-7,8-dihydro-4H-pyrazolo[1,5-a][1,4]diazepin-5(6H)-yl]-2-oxoethyl}amine hydrochloride] | 198 to 208 °C
N[C@@H](CSSC[C@H](N)C(=O)N1CCn2nc(-c3ccc(Cl)cc3Cl)cc2C1CCc1ccccc1)C(=O)N1CCn2nc(-c3ccc(Cl)cc3Cl)cc2C1CCc1ccccc1 (mixture of isomers) (as salt: hydrochloride) [Example 22, (2R)-3-({(2R)-2-amino-3-[(4RS)-2-(2,4-dichlorophenyl)-4-(2-phenylethyl)-6,7-dihydropyrazolo[1,5-a]pyrazin-5(4H)-yl]-3-oxopropyl}dithio)-1-[(4RS)-2-(2,4-dichlorophenyl)-4-(2-phenylethyl)-6,7-dihydropyrazolo[1,5-a]pyrazin-5(4H)-yl]-1-oxopropan-2-amine hydrochloride] | 198 to 202 °C
CCCCC1c2cc(-c3ccccc3)nn2CCN1C(=O)[C@@H](N)CSSC[C@H](N)C(=O)N1CCn2nc(-c3ccccc3)cc2C1CCCC (mixture of isomers) (as salt: hydrochloride) [Example 21, (2R)-3-({(2R)-2-amino-3-[(4RS)-4-butyl-2-phenyl-6,7-dihydropyrazolo[1,5-a]pyrazin-5(4H)-yl]-3-oxopropyl}dithio)-1-[(4RS)-4-butyl-2-phenyl-6,7-dihydropyrazolo[1,5-a]pyrazin-5(4H)-yl]-1-oxopropan-2-amine hydrochloride] | 210 to 215 °C (dec.)
CC(C)(C)OC(=O)N[C@@H](CSSC[C@H](NC(=O)OC(C)(C)C)C(=O)N1CCn2nc(-c3ccccc3)cc2[C@H]1CC1CCCCC1)C(=O)N1CCn2nc(-c3ccccc3)cc2[C@H]1CC1CCCCC1 [Example 25, tert-butyl {(1R)-1-[({(2R)-2-[(tert-butoxycarbonyl)amino]-3-[(4R)-4-(cyclohexylmethyl)-2-phenyl-6,7-dihydropyrazolo[1,5-a]pyrazin-5(4H)-yl]-3-oxopropyl}dithio)methyl]-2-[(4R)-4-(cyclohexylmethyl)-2-phenyl-6,7-dihydropyrazolo[1,5-a]pyrazin-5(4H)-yl]-2-oxoethyl}carbamate] | 114 to 139 °C
